From patent US20250333683A1, “A METHOD AND SYSTEM FOR SIMULATING STEM CELL DIFFERENTIATION DYNAMICS” (CellVoyant Technologies Limited, priority 2024, published 2025)

System: human pluripotent cells (hPCs)
Test: Observed ground truth mesoderm differentiation (Brachyury immunofluorescence)
Format: cell-based
Description: Stem cell differentiation: To differentiate cells into cardiac mesoderm cells, cardiomyocytes and/or endothelial intermediate, protocol described in Giacomelli et al., [1] was adapted.
Briefly, human pluripotent cells (hPCs) were seeded, as a monolayer culture, into 96-well imaging plate in BPLE basal media for twenty-four hours, with the bovine serum albumin (BSA) polyvinylalcohol essential lipids (BPLE) basal media being supplemented with 20 ng/ml of ActinvinA (Peprotech, 120-14E-2 μG), 20 ng/ml of BMP4 (Peprotech, 120-05ET-2 μG) and varying concentrations of CHIR99201 (Selleckchem, S1263). CHIR99021 was removed randomly after either 24 or 48 hours of differentiation, to determine the effect of CHIR99021 on mesoderm differentiation rates.
The day after, the primary antibody was washed out, and the cells were incubated with the fluorescence-conjugated secondary antibody (1:1000) for 1 hour at room temperature. DAPI solution was used to detect nuclei.
Ground truth for fate forecasting was inferred by using Cellpose to segment individual cell nuclei on the DAPI channel. A Multi-Otsu threshold was carried out on the Brachury channel to separate the images into foreground and background. The total number of nucleii detected was recorded and the two sets of masks were correlated to determine the proportion of cells that were positive for the immunofluorescence marker. […]

For `Cc1c[nH]c(-c2cnc(NCCNc3ccc(C#N)cn3)nc2-c2ccc(Cl)cc2Cl)n1` [CHIR99021], the “observed ground truth proportion of cells acquiring the mesodermal cell fate” value (CHIR99021 0.93 μM, applied for 24 hours) was “very low proportion” and the “observed ground truth amount of Brachury positive cells after removal of CHIR99021” value (CHIR99021 1.93 μM, removed after 48 hours) was “decrease in the amount of Brachury positive cells”.
